Columns and labels:
recombinant human PAI-1 [1] = target: T1, recombinant human PAI-1 (Homo sapiens, UniProt P05121); assay: PAI-1 inhibitory activity, Test Method B (tPA fluorogenic substrate, Tris buffer pH7.5, room temperature); assay type: biochemical; settings: 25 μM test compound; Test Method B (cells marked "method B")
Experimental: To a 90 μL solution obtained by diluting a DMSO solution of the test compound at 2.2-fold concentration of the test concentration (=final concentration when fluorogenic substrate was added) with a Tris buffer (pH7.5), 10 μL of 120 nM recombinant human PAI-1 solution adjusted with pH6.6 phosphate buffer was added, and incubated for 15 minutes at room temperature. 50 μL of 800IU/ml two-chain tPA (activity standard) solution adjusted with Tris buffer (pH7.5) was added, and incubated for 30 minutes at room temperature. […] Fluorescence was measured at the excitation wavelength=360 nm, emission wavelength=460 or 465 nm using a microplete reader (SPECTRAFLUOR or GENios) by TECAN. The fluorescence intensities in the presence of the PAI-1 as the control (DMSO) or in the absence of the PAI-1 (tPA alone) were taken as 100% and 0% of PAI-1 activities, respectively, and inhibitory ratios of PAI-1 activities in the presence of the test compound were obtained. […]
In either method of Test Method A or B, fluorescence of tPA activation by the test compound in the absence of PAI-1 or that of the test compound was not observed.
In the following table, “method B” described in the column of the inhibitory ratio means that the results were measured by the above Test Method B. The other results indicated were measured by the above Test Method A.

recombinant human PAI-1 [2] = target: T1, recombinant human PAI-1; assay: Inhibition of complex formation of PAI-1 and tPA (SDS-PAGE); assay type: biochemical; settings: 100 μM concentration
Experimental: To a 2.5 μL solution obtained by diluting a DMSO solution of the test compound at 4-fold concentration of the test concentration with PBS(-), 5 μL of 150 nM recombinant human PAI-1 solution adjusted with a phosphate buffer (pH6.6, 0.05M Sodium Phosphate, 0.1 M NaCl, 1 mM EDTA) was added, and reacted for 5 minutes at 37° C. […] of 600 nM recombinant human one-chain tPA solution adjusted with PBS(-) was added, and further reacted for 5 minutes at 37° C. 10 μL of stop buffer (1.25 mM Tris-HCl pH6.8, 4% SDS, 0.01% BPB, 14% Glycerol) was added, heated for 30 seconds at 100° C., and then the total amount of 20 μL was applied to 10% SDS-PAGE gel electrophoresis. When the test compound was not added as being a control, a band of PAI-1-tPA complex was observed.

recombinant human PAI-1 [3] = target: T1, recombinant human PAI-1; assay: PAI-1 inhibitory activity, Test Method A (tPA fluorogenic substrate, Tris buffer pH8.0, 37 C); assay type: biochemical; settings: for IC50: 50% inhibitory concentration of PAI-1 activity, according to the aforementioned method; for Inhibitory Ratio at 25 μM (%): Test Method A
rat thrombosis model = assay: Tests in rat thrombosis model (carotid shunt, thrombus weight); assay type: in vivo; settings: intraperitoneally 30 mg/kg/day for 8 days beforehand, control 94.9±3.3 mg, n=4, p<0.01
Experimental: Catheters for shunt were inserted into the right carotid artery and the left carotid artery of a rat, blood was circulated for 30 minutes, and weights of thromboses adhered to threads placed inside the catheters were measured.

[4] = system: mouse heart transplantation model; assay: Tests in mouse (murine) heart transplantation model; assay type: in vivo; settings: p<0.05

T1 sequence (P05121 24-402): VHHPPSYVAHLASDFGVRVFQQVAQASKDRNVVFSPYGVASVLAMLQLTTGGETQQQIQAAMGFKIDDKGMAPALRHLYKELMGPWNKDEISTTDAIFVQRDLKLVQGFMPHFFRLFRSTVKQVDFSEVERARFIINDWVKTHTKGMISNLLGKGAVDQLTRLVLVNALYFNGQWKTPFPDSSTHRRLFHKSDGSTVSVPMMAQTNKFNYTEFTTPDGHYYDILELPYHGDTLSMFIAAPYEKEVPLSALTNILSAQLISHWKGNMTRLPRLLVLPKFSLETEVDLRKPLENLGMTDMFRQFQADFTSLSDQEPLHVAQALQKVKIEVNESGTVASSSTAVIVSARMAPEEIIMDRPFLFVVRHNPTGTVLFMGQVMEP

inhibition of the complex formation of PAI-1 and tPA observed with SDS-PAGE (recombinant human PAI-1 [2])	IC50 (recombinant human PAI-1 [3])	Inhibitory Ratio at 25 μM (%) (recombinant human PAI-1 [3]; test compound 25 μM)	Inhibitory Ratio at 25 μM (%) (recombinant human PAI-1 [3]; 25 μM test compound)	Compound	further results
–	–	–	–	COC(=O)c1ccc(CN2C(=O)SC(=Cc3ccc(O)c(C(=O)O)c3)C2=O)cc1 [compound 409, 5-(3-Carboxy-4-hydroxybenzylidene)-3-(4-methoxycarbonylbenzyl)-thiazolidine-2,4-dione]	Inhibitory Ratio at 25 μM (%) (recombinant human PAI-1 [1]): 23 (method B) %
completely inhibited	570 nM	–	87%	COc1cc(C=C2SC(=O)N(Cc3ccc(Cl)c(Cl)c3)C2=O)cc(C(=O)Nc2ccc(O)c(O)c2)c1O [compound 349, 5-[3-Methoxy-4-hydroxy-5-(3,4-dihydroxyphenylcarbamoyl)-benzylidene]-3-(3,4-dichlorobenzyl)thiazolidine-2,4-dione]	–
completely inhibited	210 nM	–	>99%	O=C(Nc1cccc(O)c1O)c1cc(C=C2SC(=O)N(Cc3ccc(Cl)c(Cl)c3)C2=O)ccc1O [compound 436]	–
completely inhibited	450 nM	>99%	–	O=C1SC(=Cc2cccc(O)c2O)C(=O)N1Cc1ccc(Br)cc1 [compound 36, 5-(2,3-Dihydroxybenzylidene)-3-(4-bromobenzyl)thiazolidine-2,4-dione]	–
completely inhibited	290 nM	–	>99%	O=C(Cc1cccc(Oc2ccccc2)c1)Nc1ccc(CN2C(=O)SC(=Cc3cccc(O)c3O)C2=O)cc1 [compound 312, 5-(2,3-Dihydroxybenzylidene)-3-{4-[(3-phenoxyphenyl)acetylamino]-benzyl}thiazolidine-2,4-dione]	–
completely inhibited	480 nM	–	>99%	CCOC1=NN(c2ccc([N+](=O)[O-])cc2)C(=O)C1=Cc1cc(/C=C/c2ccccc2)ccc1O [compound 517]	–
completely inhibited	390 nM	>99%	–	O=C1C(=Cc2cc(O)c(O)cc2O)C(c2ccccc2)=NN1c1cc(Cl)cc(Cl)c1 [compound 136]	–
completely inhibited	–	–	92%	O=C(Nc1ccc(O)c(O)c1)c1cc(C=C2SC(=O)N(Cc3ccc(C(F)(F)F)cc3)C2=O)ccc1O [compound 402]	–
completely inhibited	380 nM	>99%	–	O=C1SC(=Cc2cccc(O)c2O)C(=O)N1Cc1cccc(Cl)c1Cl [compound 18, 5-(2,3-Dihydroxybenzylidene)-3-(2,3-dichlorobenzyl)thiazolidine-2,4-dione]	–
completely inhibited	250 nM	>99%	–	O=C1SC(=Cc2ccc(O)c(O)c2)C(=O)N1Cc1ccc(Cl)cc1Cl [compound 23, 5-(3,4-dihydroxybenzylidene)-3-(2,4-dichlorobenzyl)thiazolidine-2,4-dione]	melting point: 202 °C (dec.)
–	–	–	–	O=C(O)c1cccc(C=C2SC(=O)N(Cc3ccc(Cl)c(Cl)c3)C2=O)c1 [compound 350, 5-(3-Carboxybenzylidene)-3-(3,4-dichlorobenzyl)thiazolidine-2,4-dione]	Inhibitory Ratio at 25 μM (%) (recombinant human PAI-1 [1]): 75 (method B) %
completely inhibited	390 nM	–	70%	O=C(Nc1cc([N+](=O)[O-])ccc1Cl)c1cc(C=C2SC(=O)N(Cc3ccc(Cl)c(Cl)c3)C2=O)ccc1O [compound 473]	–
completely inhibited	230 nM	>99%	–	O=C1C(=Cc2ccc(O)c(O)c2)SC(=S)N1Cc1ccc(Cl)c(Cl)c1 [compound 81, 5-(3,4-Dihydroxybenzylidene)-3-(3,4-dichlorobenzyl)rhodanine]	–

Compound	inhibition of the complex formation of PAI-1 and tPA observed with SDS-PAGE (recombinant human PAI-1 [2])	IC50 (recombinant human PAI-1 [3])	Inhibitory Ratio at 25 μM (%) (recombinant human PAI-1 [3]; test compound 25 μM)	Inhibitory Ratio at 25 μM (%) (recombinant human PAI-1 [3]; 25 μM test compound)	further results
O=C1SC(=Cc2cc(O)c(O)c(O)c2)C(=O)N1Cc1ccc(Cl)c(Cl)c1 [compound 10, 5-(3,4,5-Trihydroxybenzylidene)-3-(3,4-dichlorobenzyl)thiazolidine-2,4-dione]	completely inhibited	450 nM	>99%	–	weight of thrombus (rat thrombosis model): 67.2 ± 6.3 mg; ratio of fibrous lesion 60 days after the transplantation ([4]; class II mismatch allograft, control 44.5±2.7%, n=5): 18.8±2.2%; Vascular endothelial hyperplasia (ratio of thickened endothelium to the internal elastic lamina); incidence of vascular intimal thickening ([4]; class II mismatch allograft, control 64.5±5.8%): 21.7±4.9%; graft survival ([4]; major mismatch allograft Balb/c to C57BL/6, intraperitoneally 20 mg/kg/day, control 7.2±0.2 days): 9.0 ± 0.7 days

Source: patent US20070276011A1, “Plasminogen Activator Inhibitor-1 Inhibitor” (priority 2003, published 2007)
